Assay results from US9676701B2, “Cyclopropylamine derivatives useful as LSD1 inhibitors” (Oryzon Genomics, S.A., priority 2010, dated 2017).
Counter-ions that a name gives are not always drawn.

What was measured:
[1] = molecular target: Human recombinant LSD1 protein (Homo sapiens (Human), UniProt O60341); test: biochemical
From the text: The ability of the compounds of the invention to inhibit LSD1 can be tested as follows. Human recombinant LSD1 protein was purchased from BPS Bioscience Inc. In order to monitor LSD1 enzymatic activity and/or its inhibition rate by our inhibitor(s) of interest, di-methylated H3-K4 peptide (Millipore) was chosen as a substrate. The demethylase activity was estimated, under aerobic conditions, by measuring the release of H2O2 produced during the catalytic process, using the Amplex® Red peroxide/peroxidase-coupled assay kit (Invitrogen).
Within the experiment, each concentration of inhibitor was tested in triplicate. […] The enzymatic reactions were set up in a 50 mM sodium phosphate, pH 7.4 buffer. At the end of the incubation, Amplex® Red reagent and horseradish peroxidase (HPR) solution were added to the reaction according to the recommendations provided by the supplier (Invitrogen), and left to incubate for 30 extra minutes at room temperature in the dark. A 1 μM H2O2 solution was used as a control of the kit efficiency.
The Ki (IC50) of each inhibitor was estimated at half of the maximum activity.

MAO-A = MAO-A (Homo sapiens (Human), UniProt P21397); details: read-out: MAO-A (Ki)
MAO-B = MAO-B (Homo sapiens (Human), UniProt P27338); details: read-out: MAO-B (Ki)
Sequence of MAO-B (P27338 whole entry): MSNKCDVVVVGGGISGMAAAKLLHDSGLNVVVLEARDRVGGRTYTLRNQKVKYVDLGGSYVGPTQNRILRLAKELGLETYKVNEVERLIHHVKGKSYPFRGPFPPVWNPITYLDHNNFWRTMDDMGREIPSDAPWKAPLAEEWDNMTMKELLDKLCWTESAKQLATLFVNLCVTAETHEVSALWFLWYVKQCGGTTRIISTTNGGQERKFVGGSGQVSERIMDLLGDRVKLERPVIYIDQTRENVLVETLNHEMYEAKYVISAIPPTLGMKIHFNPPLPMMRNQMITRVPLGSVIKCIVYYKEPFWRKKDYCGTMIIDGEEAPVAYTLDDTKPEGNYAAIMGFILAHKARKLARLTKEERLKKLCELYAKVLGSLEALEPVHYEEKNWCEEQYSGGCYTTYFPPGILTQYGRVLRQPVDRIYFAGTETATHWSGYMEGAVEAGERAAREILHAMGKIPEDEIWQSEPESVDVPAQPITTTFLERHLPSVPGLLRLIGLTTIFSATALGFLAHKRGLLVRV

Sequence of MAO-A (P21397 whole entry): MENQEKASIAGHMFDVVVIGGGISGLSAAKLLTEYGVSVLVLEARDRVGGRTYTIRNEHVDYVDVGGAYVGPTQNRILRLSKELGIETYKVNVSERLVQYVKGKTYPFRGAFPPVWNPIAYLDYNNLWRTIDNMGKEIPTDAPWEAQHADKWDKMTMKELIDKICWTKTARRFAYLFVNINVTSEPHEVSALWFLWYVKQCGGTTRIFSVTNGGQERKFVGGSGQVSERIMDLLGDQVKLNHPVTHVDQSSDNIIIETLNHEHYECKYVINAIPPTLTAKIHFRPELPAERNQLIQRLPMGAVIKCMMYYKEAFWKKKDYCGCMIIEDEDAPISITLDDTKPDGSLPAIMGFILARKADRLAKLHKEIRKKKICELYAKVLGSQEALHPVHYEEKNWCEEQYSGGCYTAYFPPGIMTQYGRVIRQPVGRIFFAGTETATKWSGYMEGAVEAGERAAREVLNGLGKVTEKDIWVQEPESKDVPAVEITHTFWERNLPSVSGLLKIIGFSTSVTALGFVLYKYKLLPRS

SMILES	Ki [1] [nM]	Ki (MAO-A) [nM]	Ki (MAO-B) [nM]
N[C@H]1C[C@@H]1c1ccc(-c2ccc(O)cc2)cc1 (relative stereo) [Example 3, 4′-((trans)-2-aminocyclopropyl)biphenyl-4-ol hydrochloride]	100 to 1000	1000 to 40000	1000 to 40000
N[C@H]1C[C@@H]1c1ccc(-c2cc(O)ccc2F)nc1 (relative stereo) [Example 25, 3-(5-((trans)-2-aminocyclopropyl)pyridin-2-yl)-4-fluorophenol hydrochloride]	1 to 100	1000 to 40000	1000 to 40000
N[C@H]1C[C@@H]1c1ccc(-c2cccc(C(F)(F)F)c2F)nc1 (relative stereo) [Example 30, (trans)-2-(6-(2-fluoro-3-(trifluoromethyl)phenyl)pyridin-3-yl)cyclopropanamine hydrochloride]	100 to 1000	1000 to 40000	1000 to 40000
N[C@H]1C[C@@H]1c1ccc(-c2cccc(O)c2F)nc1 (relative stereo) [Example 26, 3-(5-((trans)-2-aminocyclopropyl)pyridin-2-yl)-2-fluorophenol hydrochloride]	100 to 1000	1000 to 40000	1000 to 40000
N#Cc1ccc(-c2ccc([C@H]3C[C@@H]3N)cn2)s1 (relative stereo) [Example 56, 5-(5-((trans)-2-aminocyclopropyl)pyridin-2-yl)thiophene-2-carbonitrile hydrochloride]	1 to 100	1000 to 40000	1000 to 40000
COc1cccc(-c2ccc([C@H]3C[C@@H]3N)cn2)c1F (relative stereo) [Example 41, (trans)-2-(6-(2-fluoro-3-methoxyphenyl)pyridin-3-yl)cyclopropanamine hydrochloride]	100 to 1000	1000 to 40000	1000 to 40000
N[C@H]1C[C@@H]1c1ccc(-c2cc(O)cc(F)c2)nc1 (relative stereo) [Example 24, 3-(5-((trans)-2-aminocyclopropyl)pyridin-2-yl)-5-fluorophenol hydrochloride]	1 to 100	1000 to 40000	1000 to 40000
COc1ccc(C#N)cc1-c1ccc([C@H]2C[C@@H]2N)cn1 (relative stereo) [Example 72, 3-(5-((trans)-2-aminocyclopropyl)pyridin-2-yl)-4-methoxybenzonitrile hydrochloride]	100 to 1000	1000 to 40000	1000 to 40000
CC(C)S(=O)(=O)Nc1cccc(-c2ccc([C@H]3C[C@@H]3N)cn2)c1 (relative stereo) [Example 65, N-(3-(5-((trans)-2-aminocyclopropyl)pyridin-2-yl)phenyl)propane-2-sulfonamide hydrochloride]	1 to 100	1000 to 40000	1000 to 40000
N[C@H]1C[C@@H]1c1ccc(-c2cc(O)cc(Cl)c2)nc1 (relative stereo) [Example 29, 3-(5-((trans)-2-aminocyclopropyl)pyridin-2-yl)-5-chlorophenol hydrochloride]	1 to 100	1000 to 40000	1000 to 40000
N#Cc1cccc(-c2ccc([C@H]3C[C@@H]3N)cn2)c1 (relative stereo) [Example 13, 3-(5-((trans)-2-aminocyclopropyl)pyridin-2-yl)benzonitrile hydrochloride]	1 to 100	1000 to 40000	1000 to 40000
N[C@H]1C[C@@H]1c1ccc(-c2ccc(F)c(O)c2)nc1 (relative stereo) [Example 23, 5-(5-((trans)-2-aminocyclopropyl)pyridin-2-yl)-2-fluorophenol hydrochloride]	1 to 100	1000 to 40000	1000 to 40000
N[C@H]1C[C@@H]1c1ccc(-c2cccc(O)c2)cc1 (relative stereo) [Example 4, 4′-((trans)-2-aminocyclopropyl)biphenyl-3-ol hydrochloride]	1 to 100	1000 to 40000	1000 to 40000
COc1cc(F)cc(-c2ccc([C@H]3C[C@@H]3N)cn2)c1 (relative stereo) [Example 39, (trans)-2-(6-(3-fluoro-5-methoxyphenyl)pyridin-3-yl)cyclopropanamine hydrochloride]	100 to 1000	1000 to 40000	1000 to 40000
N[C@H]1C[C@@H]1c1ccc(-c2ccc(O)cc2)nc1 (relative stereo) [Example 16, 4-(5-((trans)-2-aminocyclopropyl)pyridin-2-yl)phenol hydrochloride]	100 to 1000	1000 to 40000	1000 to 40000
CC(=O)Nc1cccc(-c2ccc([C@H]3C[C@@H]3N)cn2)c1 (relative stereo) [Example 52, N-(3-(5-((trans)-2-aminocyclopropyl)pyridin-2-yl)phenyl)acetamide hydrochloride]	100 to 1000	1000 to 40000	1000 to 40000

SMILES	Ki [1] [nM]	Ki (MAO-A) [nM]	Ki (MAO-B) [nM]
N#Cc1ccc(-c2ccc([C@H]3C[C@@H]3N)cn2)cc1 (relative stereo) [Example 12, 4-(5-((trans)-2-aminocyclopropyl)pyridin-2-yl)benzonitrile dihydrochloride]	100 to 1000	1000 to 40000	1000 to 40000
Cc1nc(-c2cccc(C(F)(F)F)c2)ccc1[C@H]1C[C@@H]1N (relative stereo) [Example 80, (trans)-2-(2-methyl-6-(3-(trifluoromethyl)phenyl)pyridin-3-yl)cyclopropanamine hydrochloride]	100 to 1000	1000 to 40000	1000 to 40000
N[C@H]1C[C@@H]1c1ccc(-c2cccc(C(F)(F)F)c2)cc1 (relative stereo) [Example 1, (trans)-2-(3′-(trifluoromethyl)biphenyl-4-yl)cyclopropanamine hydrochloride]	100 to 1000	1000 to 40000	1000 to 40000
COc1ccc(Cl)c(-c2ccc([C@H]3C[C@@H]3N)cn2)c1 (relative stereo) [Example 43, (trans)-2-(6-(2-chloro-5-methoxyphenyl)pyridin-3-yl)cyclopropanamine hydrochloride]	100 to 1000	1000 to 40000	1000 to 40000
N[C@H]1C[C@@H]1c1ccc(-c2cc3ccccc3s2)nc1 (relative stereo) [Example 54, (trans)-2-(6-(benzo[b]thiophen-2-yl)pyridin-3-yl)cyclopropanamine hydrochloride]	100 to 1000	1000 to 40000	1000 to 40000
N[C@H]1C[C@@H]1c1ccc(-c2cccc(C(F)(F)F)c2)nc1Cl (relative stereo) [Example 76, (trans)-2-(2-chloro-6-(3-(trifluoromethyl)phenyl)pyridin-3-yl)cyclopropanamine hydrochloride]	100 to 1000	1000 to 40000	1000 to 40000
COc1ccc(F)c(-c2ccc([C@H]3C[C@@H]3N)cn2)c1 (relative stereo) [Example 40, (trans)-2-(6-(2-fluoro-5-methoxyphenyl)pyridin-3-yl)cyclopropanamine hydrochloride]	100 to 1000	1000 to 40000	1000 to 40000
N#Cc1ccccc1S(=O)(=O)Nc1cccc(-c2ncc([C@H]3C[C@@H]3N)s2)c1 (relative stereo) [Example 124, N-(3-(5-((trans)-2-aminocyclopropyl)thiazol-2-yl)phenyl)-2-cyanobenzenesulfonamide dihydrochloride]	1 to 100	1000 to 40000	1000 to 40000
N[C@H]1C[C@@H]1c1ccc(-c2ccc3c(c2)NC(=O)C3)nc1 (relative stereo) [Example 62, 6-(5-((trans)-2-aminocyclopropyl)pyridin-2-yl)indolin-2-one hydrochloride]	100 to 1000	1000 to 40000	1000 to 40000
CCS(=O)(=O)Nc1cccc(-c2ccc([C@H]3C[C@@H]3N)cn2)c1 (relative stereo) [Example 98, N-(3-(5-((trans)-2-aminocyclopropyl)pyridin-2-yl)phenyl)ethanesulfonamide hydrochloride]	1 to 100	1000 to 40000	1000 to 40000
N[C@H]1C[C@@H]1c1ccc(-c2cc(C(F)(F)F)ccc2Cl)nc1 (relative stereo) [Example 50, (trans)-2-(6-(2-chloro-5-(trifluoromethyl)phenyl)pyridin-3-yl)cyclopropanamine hydrochloride]	100 to 1000	1000 to 40000	1000 to 40000
N[C@H]1C[C@@H]1c1ccc(-c2cc(O)ccc2Cl)nc1 (relative stereo) [Example 47, 3-(5-((trans)-2-aminocyclopropyl)pyridin-2-yl)-4-chlorophenol hydrochloride]	100 to 1000	1000 to 40000	1000 to 40000
NC(=O)c1cccc(-c2ccc([C@H]3C[C@@H]3N)cn2)c1 (relative stereo) [Example 19, 3-(5-((trans)-2-aminocyclopropyl)pyridin-2-yl)benzamide hydrochloride]	100 to 1000	1000 to 40000	1000 to 40000
N[C@H]1C[C@@H]1c1ccc(-c2cc(C(F)(F)F)ccc2F)nc1 (relative stereo) [Example 49, (trans)-2-(6-(2-fluoro-5-(trifluoromethyl)phenyl)pyridin-3-yl)cyclopropanamine hydrochloride]	100 to 1000	1000 to 40000	1000 to 40000
Cc1cscc1-c1ccc([C@H]2C[C@@H]2N)cn1 (relative stereo) [Example 57, (trans)-2-(6-(4-methylthiophen-3-yl)pyridin-3-yl)cyclopropanamine hydrochloride]	100 to 1000	1000 to 40000	1000 to 40000
N[C@H]1C[C@@H]1c1ccc(-c2ccc3sccc3c2)nc1 (relative stereo) [Example 34, (trans)-2-(6-(benzo[b]thiophen-5-yl)pyridin-3-yl)cyclopropanamine hydrochloride]	100 to 1000	1000 to 40000	1000 to 40000
